# Reference: patent US20230180804A1, “FLAVOR COMPOSITION, AND FOOD AND BEVERAGE” (TAKASAGO INTERNATIONAL CORPORATION, priority 2020, published 2023)
# How the values were obtained:
# [1] = Sensory evaluation of p-cresol odor masking in p-cresol-containing citrus-flavored beverage; details: for p-Cresol Odor Intensity: beverage with 50 ppb p-cresol, average score of 7 panelists, scale 0-4; for concentration at which the compound masks the p-cresol odor and does not affect the citrus flavor, lower limit / concentration at which the compound masks the p-cresol odor and does not affect the citrus flavor, upper limit: citrus-flavored beverage with 50 ppb p-cresol
# Description: To 2 g of lemon flavor obtained by making lemon oil into an essence, purified water was added to adjust the total amount to 1000 ml. To this citrus-flavored beverage, p-cresol adjusted to a concentration of 1% by mass with 95% ethanol was added to 50 ppb in the citrus-flavored beverage. To this p-cresol-containing citrus-flavored beverage, 1-oxacycloheptadecan-7-en-2-one was added at the concentrations presented in Table 1 to confirm the p-cresol odor intensity (masking effect) and the influence on the citrus flavor of each sample.
# For the test, seven skilled panelists were selected to perform sensory evaluation. The p-cresol odor intensity of the p-cresol-containing citrus-flavored beverage without added l-oxacycloheptadecan-7-en-2-one was determined as “Rating: 4,” and the p-cresol odor intensity of the p-cresol-free citrus-flavored beverage was determined as “Rating: 0,” and the p-cresol odor intensity (masking effect) of each sample was relatively evaluated according to the following evaluation criteria.
# In addition, the influence of the citrus-flavored beverage on the citrus flavor was evaluated absolutely according to the following evaluation criteria for the presence or absence of off- flavor other than p-cresol odor and citrus flavor (Off-Flavor Intensity).
# The results are as in Table 1, presenting the average score of the evaluation results for each panelist.
# [2] = Sensory evaluation of p-cresol odor masking in p-cresol-containing citrus-flavored confectionery (tablet); details: for p-Cresol Odor Intensity: tablet with 200 ppb p-cresol, average score of 6 panelists, scale 0-4; for concentration at which the compound masks the p-cresol odor and does not affect the citrus flavor, lower limit / concentration at which the compound masks the p-cresol odor and does not affect the citrus flavor, upper limit: citrus-flavored confectionery (tablet) with 200 ppb p-cresol
# Description: Lemon cold-pressed oil was added to the tablet having the composition presented in Table A at a concentration of 1 % by mass, and medium chain fatty acid triglycerides (MCT) was used to adjust p-cresol to a concentration of 0.1%, which was further added so as to reach 200 ppb in the citrus flavored confectionery. To this p-cresol-containing citrus-flavored confectionery, 1-oxacycloheptadecan-7-en-2-one was added at the concentrations presented in Table 12, and then tableting was performed to confirm the p-cresol odor intensity (masking effect) and the influence on the citrus flavor of each sample.
# Six skilled panelists were selected to perform the same sensory evaluation as in Example 1. The results are as in Table 12, presenting the average score of the evaluation results for each panelist.
# [3] = molecular target: T1, olfactory receptor OR9Q2 (Homo sapiens, UniProt Q8NGE9); test: OR9Q2 response inhibitory effect for p-cresol, luciferase reporter gene assay; type: cell-based; details: p-cresol 100 µM mixed with various concentrations of compound; cells expressing OR9Q2; ratio of Fold Increase value (FIGS. 1 to 11)
# T1 construct: 20 N-terminal amino acid residues of bovine rhodopsin (Rho tag); expressed in transfected cells; host or cells: HEK293T
# T1 sequence (Q8NGE9 1-314): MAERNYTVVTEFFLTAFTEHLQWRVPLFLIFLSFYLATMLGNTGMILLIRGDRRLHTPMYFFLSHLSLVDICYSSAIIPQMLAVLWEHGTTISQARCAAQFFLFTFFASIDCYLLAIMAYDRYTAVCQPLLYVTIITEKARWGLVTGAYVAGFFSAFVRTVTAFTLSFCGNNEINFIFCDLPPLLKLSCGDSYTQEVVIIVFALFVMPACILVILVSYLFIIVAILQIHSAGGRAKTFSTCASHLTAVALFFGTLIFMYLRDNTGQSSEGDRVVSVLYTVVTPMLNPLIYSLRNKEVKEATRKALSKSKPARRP
# Description: The human olfactory receptor gene was obtained by cloning from Human Genomic DNA: Female (Promega) by PCR method based on the sequence information registered in GenBank. The 20 N-terminal amino acid residues of bovine rhodopsin were incorporated into the pME18S vector, and the obtained human olfactory receptor gene was incorporated downstream thereof to obtain a human olfactory receptor gene expression vector.
# In 10 µL of Opti-MEM I (gibco), 0.05 µg of human olfactory receptor gene expression vector, 0.01 µg of RTP1S vector, 0.01 µg firefly luciferase vector pGL4.29 (Promega) containing cAMP response element promoter, and 0.005 µg of Renilla luciferase vector pGL4.74 (Promega) containing thymidine kinase promoter were dissolved to prepare a gene solution (for one well). HEK293T cells were seeded at 100 µL each in a 96-well plate (Biocoat, Coming) at the number of cells reaching confluence after 24 hours, and a gene solution was added to each well by the lipofection method according to the usage of Lipofectamine 3000 to introduce genes into the cells, and the cells were cultured at 37° C. in a 5% carbon dioxide atmosphere for 24 hours.
# After removing the culture medium, the resultant was prepared with CD293 (gibco) medium ([…] added) so as to have a concentration for measuring the aroma substance to be tested, 50 µL of which was added each and stimulated for 3 hours, and then luciferase activity was measured according to the method of using the Dual-Luciferase Reporter Assay System (Promega). The response intensity of the olfactory receptor polypeptide was expressed as a Fold Increase value obtained by dividing the luciferase activity produced by stimulating the aroma substance by the luciferase activity produced in the test system containing no aroma substance.
# p-Cresol at 100 µM was mixed with various concentrations of 1-oxacycloheptadecan-7-en-2-one, 1-oxacycloheptadecan-8-en-2-one, isoambrettolide, pentalide, muscone, civetone, 8-2-decenolactone, cinnamic aldehyde, […], sclareolide, and ethyl maltol, and receptor responses were measured in cells expressing OR9Q2. The ratio of the Fold Increase value in the test in which each compound was mixed was calculated, where the Fold Increase value in the test in none of these compounds was mixed was set to 100. FIGS. 1 to 11 present the results.
# [4] = Sensory evaluation of p-cresol odor masking in p-cresol-containing grated raw ginger; details: for p-Cresol Odor Intensity: grated ginger with 600 ppb p-cresol, average score of 9 panelists, scale 0-4
# Description: To commercially available grated raw ginger, p-cresol adjusted to a concentration of 0.1% with 95% ethanol was added to a concentration of 600 ppb in the ginger. To this p-cresol-containing ginger, 1-oxacycloheptadecan-8-en-2-one was added at the concentrations presented in Table 16 to confirm the p-cresol odor intensity (masking effect) and the influence on the ginger flavor of each sample.
# Nine skilled panelists were selected to perform the same sensory evaluation as in Example 1. The results are as in Table 16, presenting the average score of the evaluation results for each panelist.
# [5] = Sensory evaluation of p-cresol odor masking in p-cresol-containing lemon dressing; details: lemon dressing with 500 ppb p-cresol; for p-Cresol Odor Intensity: average score of 9 panelists, scale 0-4
# Description: To a commercially available lemon dressing, p-cresol adjusted to a concentration of 0.1% with 95% ethanol was added to 500 ppb in the lemon dressing. To this p-cresol-containing lemon dressing, l-oxacycloheptadecan-8-en-2-one was added at the concentrations presented in Table 18 to confirm the p-cresol odor intensity (masking effect) and the influence on the citrus flavor of each sample.
# Nine skilled panelists were selected to perform the same sensory evaluation as in Example 1. The results are as in Table 18, presenting the average score of the evaluation results for each panelist.
# [6] = grated raw ginger with 600 ppb p-cresol
compound,measurement,setting,value
"O=C1CCCCC=CCCCCCCCCCO1 [1-Oxacycloheptadecan-7-En-2-One, 1-oxacycloheptadecan-7-en-2-one]",p-Cresol Odor Intensity,[1]; 0.01 ppt added,3.7 points
same,p-Cresol Odor Intensity,[1]; 0.1 ppt added,2.7 points
same,p-Cresol Odor Intensity,[1]; 1 ppb added,1.3 points
same,p-Cresol Odor Intensity,[1]; 1 ppt added,2.4 points
same,p-Cresol Odor Intensity,[1]; 10 ppb added,0.9 points
same,p-Cresol Odor Intensity,[1]; 10 ppt added,2.0 points
same,p-Cresol Odor Intensity,[1]; 100 ppb added,0.7 points
same,p-Cresol Odor Intensity,[1]; 100 ppt added,1.7 points
same,"concentration at which the compound masks the p-cresol odor and does not affect the citrus flavor, lower limit",[1],≥ 0.1 ppt
same,"concentration at which the compound masks the p-cresol odor and does not affect the citrus flavor, upper limit",[1],≤ 1 ppb
same,p-Cresol Odor Intensity,[2]; 4 ppb added,2.5 points
same,p-Cresol Odor Intensity,[2]; 40 ppb added,2.0 points
same,p-Cresol Odor Intensity,[2]; 40 ppt added,3.2 points
same,p-Cresol Odor Intensity,[2]; 400 ppb added,1.3 points
same,p-Cresol Odor Intensity,[2]; 400 ppt added,2.7 points
same,"concentration at which the compound masks the p-cresol odor and does not affect the citrus flavor, lower limit",[2],≥ 400 ppt
same,"concentration at which the compound masks the p-cresol odor and does not affect the citrus flavor, upper limit",[2],≤ 400 ppb
"O=C/C=C/c1ccccc1 [Cinnamic Aldehyde, cinnamic aldehyde]",effect of suppressing the response of OR9Q2 to p-cresol,[3],suppressing the response of OR9Q2 to p-cresol in a concentration-dependent manner
same,p-Cresol Odor Intensity,[1]; 1 ppb added,2.3 points
same,p-Cresol Odor Intensity,[1]; 1 ppm added,1.7 points
same,p-Cresol Odor Intensity,[1]; 10 ppb added,2.0 points
same,p-Cresol Odor Intensity,[1]; 10 ppm added,0.9 points
same,p-Cresol Odor Intensity,[1]; 10 ppt added,3.9 points
same,p-Cresol Odor Intensity,[1]; 100 ppb added,2.0 points
same,p-Cresol Odor Intensity,[1]; 100 ppm added,0.6 points
same,p-Cresol Odor Intensity,[1]; 100 ppt added,2.7 points
same,"concentration at which the compound masks the p-cresol odor and does not affect the citrus flavor, lower limit",[1],≥ 100 ppt
same,"concentration at which the compound masks the p-cresol odor and does not affect the citrus flavor, upper limit",[1],≤ 10 ppm
ambrettolide,effect of suppressing the response of OR9Q2 to p-cresol,[3],suppressing the response of OR9Q2 to p-cresol in a concentration-dependent manner
"O=C1CCCCCCC/C=C\CCCCCCC1 [Civetone, civetone]",effect of suppressing the response of OR9Q2 to p-cresol,[3],suppressing the response of OR9Q2 to p-cresol in a concentration-dependent manner
same,p-Cresol Odor Intensity,[1]; 0.001 ppt added,3.7 points
same,p-Cresol Odor Intensity,[1]; 0.01 ppt added,2.7 points
same,p-Cresol Odor Intensity,[1]; 0.1 ppt added,2.3 points
same,p-Cresol Odor Intensity,[1]; 1 ppb added,1.0 points
same,p-Cresol Odor Intensity,[1]; 1 ppt added,1.9 points
same,p-Cresol Odor Intensity,[1]; 10 ppb added,0.9 points
same,p-Cresol Odor Intensity,[1]; 10 ppt added,1.6 points
same,p-Cresol Odor Intensity,[1]; 100 ppb added,0.4 points
same,p-Cresol Odor Intensity,[1]; 100 ppt added,1.1 points
same,"concentration at which the compound masks the p-cresol odor and does not affect the citrus flavor, lower limit",[1],≥ 0.01 ppt
same,"concentration at which the compound masks the p-cresol odor and does not affect the citrus flavor, upper limit",[1],≤ 1 ppb
"O=C1CCCCCC=CCCCCCCCCO1 [1-Oxacycloheptadecan-8-En-2-One, 1-oxacycloheptadecan-8-en-2-one]",p-Cresol Odor Intensity,[1]; 0.01 ppt added,3.6 points
same,p-Cresol Odor Intensity,[1]; 0.1 ppt added,2.9 points
same,p-Cresol Odor Intensity,[1]; 1 ppb added,1.1 points
same,p-Cresol Odor Intensity,[1]; 1 ppt added,2.6 points
same,p-Cresol Odor Intensity,[1]; 10 ppb added,0.7 points
same,p-Cresol Odor Intensity,[1]; 10 ppt added,1.9 points
same,p-Cresol Odor Intensity,[1]; 100 ppb added,0.4 points
same,p-Cresol Odor Intensity,[1]; 100 ppt added,1.4 points
same,"concentration at which the compound masks the p-cresol odor and does not affect the citrus flavor, lower limit",[1],≥ 0.1 ppt
same,"concentration at which the compound masks the p-cresol odor and does not affect the citrus flavor, upper limit",[1],≤ 1 ppb
same,p-Cresol Odor Intensity,[2]; 4 ppb added,2.5 points
same,p-Cresol Odor Intensity,[2]; 40 ppb added,1.8 points
same,p-Cresol Odor Intensity,[2]; 40 ppt added,3.3 points
same,p-Cresol Odor Intensity,[2]; 400 ppb added,1.7 points
same,p-Cresol Odor Intensity,[2]; 400 ppt added,3.2 points
same,"concentration at which the compound masks the p-cresol odor and does not affect the citrus flavor, lower limit",[2],≥ 4 ppb
same,"concentration at which the compound masks the p-cresol odor and does not affect the citrus flavor, upper limit",[2],≤ 400 ppb
same,p-Cresol Odor Intensity,[4]; 1 ppb added,1.7 points
same,p-Cresol Odor Intensity,[4]; 1 ppt added,3.2 points
same,p-Cresol Odor Intensity,[4]; 10 ppb added,1.4 points
same,p-Cresol Odor Intensity,[4]; 10 ppt added,2.4 points
same,p-Cresol Odor Intensity,[4]; 100 ppt added,2.3 points
same,"concentration at which the compound masks the p-cresol odor and does not affect the ginger flavor, lower limit",[4]; [6],≥ 10 ppt
same,"concentration at which the compound masks the p-cresol odor and does not affect the ginger flavor, upper limit",[4]; [6],≤ 1 ppb
same,p-Cresol Odor Intensity,[5]; 1 ppb added,1.1 points
same,p-Cresol Odor Intensity,[5]; 1 ppt added,2.9 points
same,p-Cresol Odor Intensity,[5]; 10 ppb added,1.0 points
same,p-Cresol Odor Intensity,[5]; 10 ppt added,2.2 points
same,p-Cresol Odor Intensity,[5]; 100 ppt added,1.6 points
same,"concentration at which the compound masks the p-cresol odor and does not affect the citrus flavor, lower limit",[5],≥ 1 ppt
same,"concentration at which the compound masks the p-cresol odor and does not affect the citrus flavor, upper limit",[5],≤ 10 ppb
